{"source": "patent US9034791B2", "about": "“Method for controlling noxious organisms” (Sumitomo Chemical Company, Limited, priority 2012, dated 2015)", "type_in_all_cases": "in vivo", "settings_in_all_cases": "day 7 after sowing, scale 0 to 100", "key": {"Ivyleaf morningglory [1]": {"system": "Ivyleaf morningglory", "test": "Pot test, herbicidal effect with fludioxonil-treated soybean seeds and soil-applied PPO inhibitor", "procedure": "(§1) The evaluation of the herbicidal effect is classified into 0 to 100, in which the numeral “0” indicates no or little difference in the state of germination or growth of test weeds as compared with the untreated weeds at the time of the investigation, and the numeral “100” indicates the complete death of the test plants or the complete suppression of their germination or growth.\nIn a plastic cup of 100 mm in inside diameter and 40 mm in height, 14.25 mg of a fludioxonil suspension (a suspension containing 20% of fludioxonil, trade name: Savior flowable, manufactured by Syngenta Japan K. K.) and 40 soybean seeds were placed. The plastic cup was shaken by the hand so that the fludioxonil suspension was attached to the soybean seeds. The weight of 40 soybean seeds was 9.55 g, and the amount of fludioxonil by the above treatment was calculated as 30 g per 100 kg of the soybean seeds.\nIn the same manner, 151.4 mg of the fludioxonil suspension was attached to 40 soybean seeds. The weight of 40 soybean seeds was 10.1 g, and the amount of fludioxonil by the above treatment was calculated as 300 g per 100 kg of the soybean seeds.\n(§2) A soil was packed in a plastic pot of 120 mm in inside diameter×80 mm in height. The above treated soybean seeds were sown in this pot at a rate of two seeds per pot, and the seeds of ivyleaf morningglory were sown at a rate of four seeds per pot. On the day of sowing the soybean seeds and after sowing the soybean seeds, an aqueous diluted solution (113 mg of active ingredient/L or 225 mg of active ingredient/L) of a flumioxazin granular wettable powder (a granular wettable powder containing 51% of flumioxazin, trade name: Valor SX, manufactured by Valent USA), an aqueous diluted solution (226 mg of active ingredient/L or 1130 mg of active ingredient/L) of a sulfentrazone granular wettable powder (a granular wettable powder containing 75% of sulfentrazone, trade name: Cover, manufactured by DuPont), or an aqueous diluted solution (113 mg/L or 226 mg/L) of saflufenacil was uniformly sprayed on the soil surface with a sprayer so as to apply the amount described in Tables 1 to 3. The aqueous diluted solution of saflufenacil was prepared by dissolving a predetermined amount of saflufenacil in acetone containing 2% (w/v) of Tween 20, and diluting this solution with water so as to have an acetone concentration of 10% by volume.\nOn day 7 after sowing the seeds of soybean and ivyleaf morningglory, the herbicidal effect was investigated."}, "Ivyleaf morningglory [2]": {"system": "Ivyleaf morningglory", "test": "Pot test, herbicidal effect with fludioxonil-treated corn seeds and soil-applied PPO inhibitor", "procedure": "as §1\nIn a plastic cup of 100 mm in inside diameter and 40 mm in height, 19.8 mg of a fludioxonil suspension (a suspension containing 20% of fludioxonil, trade name: Savior flowable, manufactured by Syngenta Japan K. K.) and 40 corn seeds were placed. The plastic cup was shaken by the hand so that the fludioxonil suspension was attached to the corn seeds. The weight of 40 corn seeds was 13.2 g, and the amount of fludioxonil by the above treatment was calculated as 30 g per 100 kg of the corn seeds.\nIn the same manner, 193.5 mg of the fludioxonil suspension was attached to 40 corn seeds. The weight of 40 corn seeds was 12.9 g, and the amount of fludioxonil by the above treatment was calculated as 300 g per 100 kg of the corn seeds.\nas §2, with “treated corn” for “treated soybean”, “the corn” for “the soybean”, “Tables 4” for “Tables 1”, “to 6.” for “to 3.”\nOn day 7 after sowing the seeds of corn and ivyleaf morningglory, the herbicidal effect was investigated."}, "Ivyleaf morningglory [3]": {"system": "Ivyleaf morningglory", "test": "Pot test, herbicidal effect with fludioxonil-treated cotton seeds and soil-applied PPO inhibitor", "procedure": "as §1\nIn a plastic cup of 100 mm in inside diameter and 40 mm in height, 8.55 mg of a fludioxonil suspension (a suspension containing 20% of fludioxonil, trade name: Savior flowable, manufactured by Syngenta Japan K. K.) and 40 cotton seeds were placed. The plastic cup was shaken by the hand so that the fludioxonil suspension was attached to the cotton seeds. The weight of 40 cottonseeds was 5.7 g, and the amount of fludioxonil by the above treatment was calculated as 30 g per 100 kg of the cotton seeds.\nIn the same manner, 84.8 mg of the fludioxonil suspension was attached to 40 cotton seeds. The weight of 40 cotton seeds was 5.65 g, and the amount of fludioxonil by the above treatment was calculated as 300 g per 100 kg of the cotton seeds.\nas §2, with “above cotton” for “above treated soybean”, “the cotton” for “the soybean”, “Tables 7” for “Tables 1”, “to 9.” for “to 3.”\nOn day 7 after sowing the seeds of cotton and ivyleaf morningglory, the herbicidal effect was investigated."}, "[4]": {"settings": "fludioxonil 30 g/100 kg of seeds, PPO inhibitor None"}, "[5]": {"settings": "fludioxonil 300 g/100 kg of seeds, PPO inhibitor None"}, "[6]": {"settings": "fludioxonil None, PPO inhibitor 100 g/ha soil surface"}, "[7]": {"settings": "fludioxonil None, PPO inhibitor 50 g/ha soil surface"}, "[8]": {"settings": "fludioxonil None, PPO inhibitor 500 g/ha soil surface"}}}
{"smiles": "N#Cc1c[nH]cc1-c1cccc2c1OC(F)(F)O2", "note": "[fludioxonil]", "values": [{"measurement": "Herbicidal effect Ivyleaf morningglory", "setting": "Ivyleaf morningglory [1]; [4]", "result": 0}, {"measurement": "Herbicidal effect Ivyleaf morningglory", "setting": "Ivyleaf morningglory [1]; [5]", "result": 0}, {"measurement": "Herbicidal effect Ivyleaf morningglory", "setting": "Ivyleaf morningglory [2]; [4]", "result": 0}, {"measurement": "Herbicidal effect Ivyleaf morningglory", "setting": "Ivyleaf morningglory [2]; [5]", "result": 0}, {"measurement": "Herbicidal effect Ivyleaf morningglory", "setting": "Ivyleaf morningglory [3]; [4]", "result": 0}, {"measurement": "Herbicidal effect Ivyleaf morningglory", "setting": "Ivyleaf morningglory [3]; [5]", "result": 0}]}
{"smiles": "C#CCN1C(=O)COc2cc(F)c(N3C(=O)C4=C(CCCC4)C3=O)cc21", "note": "[flumioxazin]", "values": [{"measurement": "Herbicidal effect Ivyleaf morningglory", "setting": "Ivyleaf morningglory [1]; [6]", "result": 20}, {"measurement": "Herbicidal effect Ivyleaf morningglory", "setting": "Ivyleaf morningglory [2]; [7]", "result": 20}, {"measurement": "Herbicidal effect Ivyleaf morningglory", "setting": "Ivyleaf morningglory [2]; [6]", "result": 50}, {"measurement": "Herbicidal effect Ivyleaf morningglory", "setting": "Ivyleaf morningglory [3]; [6]", "result": 30}]}
{"smiles": "CC(C)N(C)S(=O)(=O)NC(=O)c1cc(-n2c(=O)cc(C(F)(F)F)n(C)c2=O)c(F)cc1Cl", "note": "[saflufenacil]", "values": [{"measurement": "Herbicidal effect Ivyleaf morningglory", "setting": "Ivyleaf morningglory [1]; [6]", "result": 40}, {"measurement": "Herbicidal effect Ivyleaf morningglory", "setting": "Ivyleaf morningglory [2]; [6]", "result": 30}, {"measurement": "Herbicidal effect Ivyleaf morningglory", "setting": "Ivyleaf morningglory [3]; [7]", "result": 30}, {"measurement": "Herbicidal effect Ivyleaf morningglory", "setting": "Ivyleaf morningglory [3]; [6]", "result": 40}]}
{"smiles": "Cc1nn(-c2cc(NS(C)(=O)=O)c(Cl)cc2Cl)c(=O)n1C(F)F", "note": "[sulfentrazone]", "values": [{"measurement": "Herbicidal effect Ivyleaf morningglory", "setting": "Ivyleaf morningglory [1]; [6]", "result": 20}, {"measurement": "Herbicidal effect Ivyleaf morningglory", "setting": "Ivyleaf morningglory [1]; [8]", "result": 60}, {"measurement": "Herbicidal effect Ivyleaf morningglory", "setting": "Ivyleaf morningglory [2]; [6]", "result": 40}, {"measurement": "Herbicidal effect Ivyleaf morningglory", "setting": "Ivyleaf morningglory [3]; [8]", "result": 30}]}
